The source of these data is patent US20040248971A1, “Use of vitamin e succinate and antiandrogen combination” (priority 2001, published 2004).

In assay [1] the test system is PSA. Kind of assay: PSA expression in LNCaP cells (Western and Northern blotting). Type of assay: cell-based, human. On the procedure: (§1) Cells without treatment were harvested on day 2 and used as a control. Western blotting was used to detect the expression of PSA protein. Actin served as an internal control. […] Cells were harvested on days 1, 2, and 3 for Northern blotting analysis. β-Actin served as an internal control. […] The transfections were performed at least three times and presented as an average±SD. […] LNCaP cells without any treatment harvested on the first day (day 0) is used as a control. Western blotting was applied to detect the expression of PSA protein level. […] Cells were harvested on day 1, 2, and 3 for Northern blotting analyses. (G). […] The transfections were performed three times and presented as an average: bar-denotes standard deviation.
Protein harvested from cells without treatment on the first day (day 0) was used as a control. Fifty micrograms of whole-cell lysate was subjected to Western blotting assay.
LNCaP cells were cultured in RPMI medium with 8% FBS, and treated with […] of the indicated reagent. Proteins harvested from cells without treatment on day 2 were used as a control. 60 micrograms of whole cell lysate was subjected to Western blotting assay.
(§2) Total protein lysate from LNCaP cells was prepared as previously described (Yeh, PNAS). After separation of 50 μg protein by SDS-PAGE gel, proteins were transferred by electrophoresis to Immobilon-P membrane (Millipore Corp., Bedford, Mass.) and incubated in PBS with 0.1% Tween-20 and 10% FCS for 2 h. Primary antibodies specific for human AR, PSA, and β-actin were diluted in PBS with 0.1% Tween-20 (PBST) as described in manual and incubated at room temperature for 2 h. Membranes were washed in PBST (three times, 10 min each time) and incubated with AP-conjugated secondary antibody which was diluted as described in manual in PBST and incubated for 2 h in room temperature, washed in PBST (three times, 10 min each time). The proteins were detected by AP western blotting reagents.
Cells were harvest after 1, 2, and 3 days treatment. Total RNA was extracted using Trizol, according to manufacturer's directions (GIBCO). Total RNA (20 μg) was electrophoresed though formaldehyde-agarose gels and transferred to Hybond-N+ membrane (Amersham Pharmacia Biotech) according the company's protocol (17).
For Northern blots, the fragments of the human PSA, AR, and β-actin cDNA were labeled with [^32P]-dCTP using the random primed DNA labeling kit from Amersham Pharmacia Biotech. Membranes were prehybridized, hybridized, and washed using Rapid-hyb system from Amersham Pharmacia Biotech, according to the manufacturer's user manual. The mRNA was detected using phosphorimager screen system (Molecular Dynamics).

Assay [2] deals with PSA6.0-Luc. The assay can be described thus: PSA promoter luciferase reporter (PSA6.0-Luc) in LNCaP cells. The note with it: 5 nM DHT, 10 μM VES or Suc. In kind it is cell-based, human. On the procedure:
as §1
For orientation: In a reporter assay the amount or activity of a reporter protein is the signal.

Assay [3] deals with SP1. The assay can be described thus: GAL4-SP1 transactivation (pG5-Luc) in COS-1 cells. Type of assay: cell-based. The following applies: 10 μM VES.
Assay [4] relates to AR. Kind of assay: AR expression in LNCaP cells (Western and Northern blotting). Type of assay: cell-based, human. On the procedure:
Cells were harvested at different time points. Twenty-five micrograms of RNA and 50 μg of protein collected from the same culture dish were applied for Northern blotting and Western blotting assays, respectively (45). The amount of actin is shown as a control. […] LNCaP cells without treatment were harvested on day 2 and used as a control. Whole-cell lysates were subjected to Western blotting assay using primary antibodies for AR, VDR, PPAR, or RXR. […] Protein harvested from cells without treatment on the first day (day 0) was used as a control. Fifty micrograms of whole-cell lysate was subjected to Western blotting assay. […] LNCaP cells were cultured in RPMI medium with 8% FBS, and treated with […] of the indicated reagent. Proteins harvested from cells without treatment on day 2 were used as a control. 60 micrograms of whole cell lysate was subjected to Western blotting assay. Total protein lysate from LNCaP cells was prepared as previously described (Yeh, PNAS). […] Membranes were washed in PBST (three times, 10 min each time) and incubated with AP-conjugated secondary antibody which was diluted as described in manual in PBST and incubated for 2 h in room temperature, washed in PBST (three times, 10 min each time). The proteins were detected by AP western blotting reagents. […] Cells were harvest after 1, 2, and 3 days treatment. Total RNA was extracted using Trizol, according to manufacturer's directions (GIBCO). Total RNA (20 μg) was electrophoresed though formaldehyde-agarose gels and transferred to Hybond-N+ membrane (Amersham Pharmacia Biotech) according the company's protocol (17). For Northern blots, the fragments of the human PSA, AR, and β-actin cDNA were labeled with [^32P]-dCTP using the random primed DNA labeling kit from Amersham Pharmacia Biotech. Membranes were prehybridized, hybridized, and washed using Rapid-hyb system from Amersham Pharmacia Biotech, according to the manufacturer's user manual. The mRNA was detected using phosphorimager screen system (Molecular Dynamics).

Assay [5] deals with AR. The assay can be described thus: AR translocation / immunostaining. Type of assay: cell-based. The text has this:
Whether VES could influence translocation of AR was examined.

In assay [6] the test system is PPARα. The assay can be described thus: PPAR expression in LNCaP cells (Western blotting). In kind it is cell-based, human. On the procedure:
(§3) Cells were harvested at different time points. Twenty-five micrograms of RNA and 50 μg of protein collected from the same culture dish were applied for Northern blotting and Western blotting assays, respectively (45). The amount of actin is shown as a control. […] LNCaP cells without treatment were harvested on day 2 and used as a control. Whole-cell lysates were subjected to Western blotting assay using primary antibodies for AR, VDR, PPAR, or RXR.
as §2
In general terms: In western blotting, separated proteins are transferred to a membrane and probed.

The subject of assay [7] is RXRα. The assay can be described thus: RXR expression in LNCaP cells (Western blotting). Type of assay: cell-based, human. The note with it: 10 μM VES. On the procedure:
as §3, §2

For assay [8], the system named is LNCaP cells. Kind of assay: MTT assay / cell counting, LNCaP cell growth. The following applies: 10 μM VES, 4 days, phase-contrast. In kind it is cell-based, human.

As to `Cc1c(C)c2c(c(C)c1OC(=O)CCC(=O)O)CCC(C)(CCCC(C)CCCC(C)CCCC(C)C)O2` (stereo not drawn) [VES, RRR-α-tocopheryl succinate], in assay [1] (LNCaP cells in normal serum or androgen-stimulated conditions), the “intracellular and secreted levels of PSA” value is “decreases”. Also, the PSA expression entry in assay [1] (LNCaP, 8% FBS, Western blotting (FIG. 9)) was “most effective isoform”. Moreover, in assay [1] (LNCaP, 5 nM DHT, 10 μM VES, Western and Northern blotting), the “PSA expression at mRNA and protein levels” value is reported as “effectively repressed”. The “DHT induced PSA6.0-Luc activity” value in assay [2] was “repressed”. Also, the GAL4-SP1 transcription activity result in assay [3] was “did not significantly inhibit”. For the same compound, the “AR mRNA and protein expression” value in assay [4] (8% FBS, 10 μM VES, Northern and Western blotting) is “inhibits”. Further, the AR expression result in assay [4] (8% FBS, Western blotting (FIG. 9)) was “most effective isoform”. Further, the “AR expression at the protein level” value in assay [4] (Western blotting, 10 μM VES, Suc or SM, 10 nM Vit D) is “could suppress”. Also, in assay [5], the “AR distribution between cytosol and nucleus” value is “little influence”; the “total AR-staining intensity” value is reported as “reduced”. Besides, the PPARr expression result in assay [6] (10 uM VES) is given as “little effect”. In addition, the PPARα expression entry in assay [6] (10 μM VES) is reported as “little effect”. In addition, in assay [7], the RXRα expression result is on record as “little effect”. For the same compound, in assay [8], the “morphologic change of LNCaP cells” value is recorded as “most of the cells dying”.
